According to patent US8193191B2, “Urotensin II receptor antagonists” (Janssen Pharmaceutica N.V., priority 2006, dated 2012):

What was measured:
[1] = target: T1, rat GPR14 (U-II receptor) (Rattus norvegicus, UniProt P49684); assay: Rat UII Calcium Mobilization FLIPR Assay; type: cell-based; settings: average value for the compound tested; read-out: Rat UII FLIPR Average IC50
T1 construct: expressed in transfected cells
T1 sequence (P49684 1-386): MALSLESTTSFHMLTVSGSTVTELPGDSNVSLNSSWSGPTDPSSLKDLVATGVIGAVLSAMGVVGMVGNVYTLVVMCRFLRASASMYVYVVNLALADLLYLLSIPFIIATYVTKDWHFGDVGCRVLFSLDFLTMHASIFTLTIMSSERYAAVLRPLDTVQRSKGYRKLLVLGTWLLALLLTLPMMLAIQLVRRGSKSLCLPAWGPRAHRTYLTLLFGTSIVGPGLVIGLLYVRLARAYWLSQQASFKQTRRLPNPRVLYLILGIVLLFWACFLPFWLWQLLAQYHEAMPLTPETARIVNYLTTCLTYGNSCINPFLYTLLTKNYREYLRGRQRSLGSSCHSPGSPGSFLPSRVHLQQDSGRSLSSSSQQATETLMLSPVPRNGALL
How it was run: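 CHO cells stably expressing rat U-II receptor, seeded 24 h before assay, were loaded with FLIPR calcium dye in HBSS/20 mM HEPES/0.1% BSA/2.5 mM probenecid, pH 7.4, for 1 h at 37° C. Calcium mobilization then read by FLIPR at 23° C.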

[2] = target: T2, Human UII receptor, 6D9 human rhabdomyosarcoma cells (Homo sapiens, UniProt Q9UKP6); assay: Human UII Calcium Mobilization Assay; type: cell-based; settings: average value, FLIPR TETRA, read-out: Human UII Ca^+ Mobilization Average IC50
T2 construct: 6D9: isolated by dilution subcloning of RMS13 cells, ATCC® Number: CRL-2061; host or cells: 6D9 human rhabdomyosarcoma cells (subclone of RMS13)
T2 sequence (Q9UKP6 1-389): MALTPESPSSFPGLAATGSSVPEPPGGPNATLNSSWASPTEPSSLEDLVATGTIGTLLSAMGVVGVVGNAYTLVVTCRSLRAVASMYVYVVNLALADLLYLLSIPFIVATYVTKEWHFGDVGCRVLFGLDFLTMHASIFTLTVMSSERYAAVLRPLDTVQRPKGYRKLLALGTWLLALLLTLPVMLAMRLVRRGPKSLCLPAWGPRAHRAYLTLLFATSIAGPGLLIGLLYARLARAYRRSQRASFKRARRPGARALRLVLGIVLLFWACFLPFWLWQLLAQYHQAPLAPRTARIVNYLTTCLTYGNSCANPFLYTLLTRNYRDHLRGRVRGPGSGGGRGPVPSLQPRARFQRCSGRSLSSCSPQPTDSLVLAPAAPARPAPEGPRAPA
Description: 6D9 human rhabdomyosarcoma cells were seeded into tissue culture treated 384-well black-walled clear bottom plates (3712, Corning Incorporated, Corning, N.Y.) at 8,000 cells/well in 25 μL of culture medium, and maintained in an incubator (5% CO2 at 37° C.) for 22 hrs prior to the calcium mobilization assay. 25 μL of dye solution was added to the wells such that the final liquid volume before agonist/antagonist treatment was 50 μL for all assays. The cell plates were incubated at 37° C. for 45 minutes and the fluorescence intensity was measured on a Fluorometric Imaging Plate Reader (FLIPR^TETRA, Molecular Devices, Sunnyvale, Calif.).
Antagonist and agonist U-II were added at room temperature on the FLIPR^TETRA, and the fluorescence intensity before and after addition was measured over a period of 4 minutes. The dye incubation time and temperature as well as instrument setting was adjusted so the fluorescence intensity could be compared between plates on the same day. EC50 and IC50 were analyzed using GraphPad Prism 4 software (GraphPad Software Inc., San Diego, Calif.).
Materials and reagent Preparation: Human Rhabdomyosarcoma cells (6D9: isolated by dilution subcloning of RMS13 cells, ATCC® Number: CRL-2061, American Type Culture Collection ATCC, Manassas, Va.) was maintained in RPMI-1640 medium (30-2001, ATCC, Manassas, Va.) supplemented with 10% (v/v) Fetal Bovine Serum (SH30071.03, Hyclone, Logan, Utah).
Dye preparation: BD™ Calcium Assay Kit (80500-301, BD Biosciences, Rockville, Md.) was prepared according to the manufacture's instruction in 1× Hanks' balanced salt solution (HBSS, 21-023-CV, Mediatech, Inc. Herndon, Va.) containing 20 mM HEPES buffer (25-060-CI, Mediatech, Inc. Herndon, Va.). Final dye loading conditions included 1.25 mM probenecid (P36400, Invitrogen, Carlsbad, Calif.) and 0.01% FBS.
Urantide (PUT-3639-PI, Peptide International, Louisville, Ky.) was prepared in water at 5 mM. For assays, U-II agonist, U-II antagonist and urantide were diluted with HBSS/HEPES containing 0.01% FBS.
Test compounds were dissolved in DMSO at 10 mM concentration. The serial dilutions were carried out in HBSS/HEPES. The highest final DMSO concentration was at 0.1%.

[3] = target: T3, endogenous human UII receptor (Homo sapiens, UniProt Q9UKP6); assay: Human Radioligand Binding Assay ((^125I)-U-II binding to human skeletal muscle myoblasts)
T3 sequence (Q9UKP6 1-389): T2 sequence (Q9UKP6 1-389)

SMILES	IC50 [1]	IC50 [2]	Ki [3]
COC(=O)c1csc(S(=O)(=O)NCCCC(c2ccc(OC)c(OC)c2)N2C(=O)c3cccc(N4CCN([C@H](C)c5ccccc5)CC4)c3C2=O)c1OC (stereo partly drawn) [Cpd 88, 5-(4-(3,4-dimethoxy-phenyl)-4-{1,3-dioxo-4-[4-(1R)-(1-phenyl-ethyl)-piperazin-1-yl]-1,3-dihydro-isoindol-2-yl}-butylsulfamoyl)-4-methoxy-thiophene-3-carboxylic acid methyl ester]	320 nM	> 3000 nM	350 nM
COC(=O)c1ccc(S(=O)(=O)NCCCC(c2ccc(OC)c(OC)c2)N2C(=O)c3cccc(N4CCN([C@H](C)c5ccccc5)CC4)c3C2=O)o1 (stereo partly drawn) [Cpd 90, 5-(4-(3,4-dimethoxy-phenyl)-4-{1,3-dioxo-4-[4-(1R)-(1-phenyl-ethyl)-piperazin-1-yl]-1,3-dihydro-isoindol-2-yl}-butylsulfamoyl)-furan-2-carboxylic acid methyl ester]	130 nM	560 nM	320 nM
COc1ccc(C(CCCNS(=O)(=O)c2c(Cl)nc3sccn23)N2C(=O)c3cccc(N4CCN([C@H](C)c5ccccc5)CC4)c3C2=O)cc1OC (stereo partly drawn) [Cpd 93, 6-chloro-imidazo[2,1-b]thiazole-5-sulfonic acid (4-(3,4-dimethoxy-phenyl)-4-{1,3-dioxo-4-[4-(1R)-(1-phenyl-ethyl)-piperazin-1-yl]-1,3-dihydro-isoindol-2-yl}-butyl)-amide]	180 nM	> 3000 nM	460 nM
COC(=O)c1sccc1S(=O)(=O)NCCCC(c1ccc(OC)c(OC)c1)N1C(=O)c2cccc(N3CCN([C@H](C)c4ccccc4)CC3)c2C1=O (stereo partly drawn) [Cpd 94, 3-(4-(3,4-dimethoxy-phenyl)-4-{1,3-dioxo-4-[4-(1R)-(1-phenyl-ethyl)-piperazin-1-yl]-1,3-dihydro-isoindol-2-yl}-butylsulfamoyl)-thiophene-2-carboxylic acid methyl ester]	65 nM	430 nM	42 nM
COc1ccc(C(CCCNS(=O)(=O)c2ccc(-c3ccon3)s2)N2C(=O)c3cccc(N4CCN([C@H](C)c5ccccc5)CC4)c3C2=O)cc1OC (stereo partly drawn) [Cpd 95, 5-isoxazol-3-yl-thiophene-2-sulfonic acid (4-(3,4-dimethoxy-phenyl)-4-{1,3-dioxo-4-[4-(1R)-(1-phenyl-ethyl)-piperazin-1-yl]-1,3-dihydro-isoindol-2-yl}-butyl)-amide]	89 nM	200 nM	110 nM
COc1ccc(C(CCCNS(=O)(=O)c2ccccc2)N2C(=O)c3cccc(N4CCN([C@H](C)c5ccccc5)CC4)c3C2=O)cc1OC (stereo partly drawn) [Cpd 96, N-(4-(3,4-dimethoxy-phenyl)-4-{1,3-dioxo-4-[4-(1R)-(1-phenyl-ethyl)-piperazin-1-yl]-1,3-dihydro-isoindol-2-yl}-butyl)-benzenesulfonamide]	97 nM	760 nM	97 nM
COc1ccc(C(CCCNS(=O)(=O)c2sc(NC(C)=O)nc2C)N2C(=O)c3cccc(N4CCN([C@H](C)c5ccccc5)CC4)c3C2=O)cc1OC (stereo partly drawn) [Cpd 97, N-[5-(4-(3,4-dimethoxy-phenyl)-4-{1,3-dioxo-4-[4-(1R)-(1-phenyl-ethyl)-piperazin-1-yl]-1,3-dihydro-isoindol-2-yl}-butylsulfamoyl)-4-methyl-thiazol-2-yl]-acetamide]	63 nM	700 nM	180 nM
CCN1CCN(c2cccc3c2C(=O)N([C@H](CCCOS(=O)(=O)c2cccs2)c2ccc(OC)c(OC)c2)C3=O)CC1 [Cpd 208, (R)-thiophene-2-sulfonic acid 4-(3,4-dimethoxy-phenyl)-4-[4-(4-ethyl-piperazin-1-yl)-1,3-dioxo-1,3-dihydro-isoindol-2-yl]-butyl ester]	320 nM	4500 nM	
CCN1CCN(c2cccc3c2C(=O)N([C@H](CCCOS(=O)(=O)N(C)C)c2ccc(OC)c(OC)c2)C3=O)CC1 [Cpd 209, (R)-dimethyl-sulfamic acid 4-(3,4-dimethoxy-phenyl)-4-[4-(4-ethyl-piperazin-1-yl)-1,3-dioxo-1,3-dihydro-isoindol-2-yl]-butyl ester]		3800 nM	290 nM

More lines, now with the values ahead:

IC50 [1]	IC50 [2]	Ki [3]	SMILES
540 nM	> 10000 nM	890 nM	COc1ccc(C(CCCNS(=O)(=O)c2cc(C)oc2C(F)(F)F)N2C(=O)c3cccc(N4CCN([C@H](C)c5ccccc5)CC4)c3C2=O)cc1OC (stereo partly drawn) [Cpd 89, 5-methyl-2-trifluoromethyl-furan-3-sulfonic acid (4-(3,4-dimethoxy-phenyl)-4-{1,3-dioxo-4-[4-(1R)-(1-phenyl-ethyl)-piperazin-1-yl]-1,3-dihydro-isoindol-2-yl}-butyl)-amide]
15 nM	310 nM	150 nM	COc1ccc(C(CCCNS(=O)(=O)c2c(C)nn(C)c2C)N2C(=O)c3cccc(N4CCN([C@H](C)c5ccccc5)CC4)c3C2=O)cc1OC (stereo partly drawn) [Cpd 91, 1,3,5-trimethyl-1H-pyrazole-4-sulfonic acid (4-(3,4-dimethoxy-phenyl)-4-{1,3-dioxo-4-[4-(1R)-(1-phenyl-ethyl)-piperazin-1-yl]-1,3-dihydro-isoindol-2-yl}-butyl)-amide]
18 nM	350 nM	42 nM	COc1ccc(C(CCCNS(=O)(=O)c2cn(C)cn2)N2C(=O)c3cccc(N4CCN([C@H](C)c5ccccc5)CC4)c3C2=O)cc1OC (stereo partly drawn) [Cpd 98, 1-methyl-1H-imidazole-4-sulfonic acid (4-(3,4-dimethoxy-phenyl)-4-{1,3-dioxo-4-[4-(1R)-(1-phenyl-ethyl)-piperazin-1-yl]-1,3-dihydro-isoindol-2-yl}-butyl)-amide]
170 nM	2700 nM	620 nM	COc1ccc(C(CCCNS(=O)(=O)c2cc(C)oc2C)N2C(=O)c3cccc(N4CCN([C@H](C)c5ccccc5)CC4)c3C2=O)cc1OC (stereo partly drawn) [Cpd 99, 2,5-dimethyl-furan-3-sulfonic acid (4-(3,4-dimethoxy-phenyl)-4-{1,3-dioxo-4-[4-(1R)-(1-phenyl-ethyl)-piperazin-1-yl]-1,3-dihydro-isoindol-2-yl}-butyl)-amide]
30 nM	300 nM	120 nM	COc1ccc(C(CCCNS(=O)(=O)c2c(C)nn(C)c2Cl)N2C(=O)c3cccc(N4CCN([C@H](C)c5ccccc5)CC4)c3C2=O)cc1OC (stereo partly drawn) [Cpd 101, 5-chloro-1,3-dimethyl-1H-pyrazole-4-sulfonic acid (4-(3,4-dimethoxy-phenyl)-4-{1,3-dioxo-4-[4-(1R)-(1-phenyl-ethyl)-piperazin-1-yl]-1,3-dihydro-isoindol-2-yl}-butyl)-amide]
